Results on 31 molecules are retold here after patent publication EP3915971A1, “PHENYL-S(O)N-PHENYLAMIDINES AND THE USE THEREOF AS FUNGICIDES” (Bayer Aktiengesellschaft, priority 2020, dated 2021).

The nature of data set [1]: LogP measurement by HPLC on reversed phase columns (EEC directive 79/831 Annex V.A8). Conditions: reversed phase HPLC columns. Type of data set: physicochemical. The method, then:
Measurement of LogP values was performed according to EEC directive 79/831 Annex V.A8 by HPLC (High Performance Liquid Chromatography) on reversed phase columns with the following methods: • ^[a] LogP value is determined by measurement of LC-UV, in an acidic range, with 0.1% formic acid in water and acetonitrile as eluent (linear gradient from 10% acetonitrile to 95% acetonitrile). • ^[b] LogP value is determined by measurement of LC-UV, in a neutral range, with 0.001 molar ammonium acetate solution in water and acetonitrile as eluent (linear gradient from 10% acetonitrile to 95% acetonitrile). • ^[c] LogP value is determined by measurement of LC-UV, in an acidic range, with 0.1% phosphoric acid and acetonitrile as eluent (linear gradient from 10% acetonitrile to 95% acetonitrile).
If more than one LogP value is available within the same method, all the values are given and separated by "+". […]

Another data set concerns Phakospora pachyrhizi. The data set can be described thus: in vivo preventive test on Phakospora pachyrhizi (soybean rust). Conditions: Glycine max, 264 h; 500 ppm of active ingredient; preventive spray on young soybean plants, inoculation after 24 hours, evaluated 11 days after inoculation; 0% = control plants, 100% = no disease; read-out: efficacy. The method, then:
Example A: in vivo preventive test on Phakospora pachyrhizi (soybean rust) [table] The active ingredients were made soluble and homogenized in a mixture of Dimethyl sulfoxide/Acetone/ /Tween® 80 and then diluted in water to the desired concentration. The young plants of soybean were treated by spraying the active ingredient prepared as described above. Control plants were treated only with an aqueous solution of Acetone/Dimethyl sulfoxide/ Tween® 80. After 24 hours, the plants were contaminated by spraying the leaves with an aqueous suspension of Phakospora pachyrhizi spores. The contaminated soybean plants were incubated for 24 hours at 24°C and at 100% relative humidity and then for 10 days at 24°C and at 70-80% relative humidity. The test was evaluated 11 days after the inoculation. 0% means an efficacy which corresponds to that of the control plants while an efficacy of 100% means that no disease was observed.

Where [2] appears, read: method [a]: LC-UV, acidic range, 0.1% formic acid in water and acetonitrile as eluent (linear gradient 10% to 95% acetonitrile).

Usually chromatographic logP stands for lipophilicity estimated from chromatographic retention. The low end stands for a more hydrophilic compound, the high end for a more lipophilic compound. As for `CCN(C)C=Nc1cc(C)c(Sc2ccccc2Cl)cc1C` [Example I-005, N'-[4-[(2-chlorophenyl)thio]-2,5-dimethylphenyl]-N-ethyl-N-methylmethanimidamide], the chromatographic logP in data set [1] (setting [2]) worked out at 2.16. Moreover, the pest or weed control at 500 ppm in the data set with Phakospora pachyrhizi was not below 70%.

On to `CCN(C)C=Nc1cc(C)c(Sc2ccccc2C)cc1Cl` [Example I-006, N'-[2-chloro-5-methyl-4-[(2-methylphenyl)thio]phenyl]-N-ethyl-N-methylmethanimidamide], for which the chromatographic logP in data set [1] (setting [2]) was 1.77. The pest or weed control at 500 ppm in the data set with Phakospora pachyrhizi is not below 70%.

`CCN(C)C=Nc1cc(C)c(Sc2ccccc2Cl)cc1Cl` [Example I-007, N'-[2-chloro-4-[(2-chlorophenyl)thio]-5-methylphenyl]-N-ethyl-N-methylmethanimidamide]: the chromatographic logP in data set [1] (setting [2]) stood at 1.83. In addition, the pest or weed control at 500 ppm in the data set on Phakospora pachyrhizi was not below 70%.

In data set [1] (setting [2]), `CCN(C)C=Nc1cc(C)c(Sc2ccccc2F)cc1Cl` [Example I-008, N'-[2-chloro-4-[(2-fluorophenyl)thio]-5-methylphenyl]-N-ethyl-N-methylmethanimidamide] gave a chromatographic logP of 1.6. Further, in the data set with Phakospora pachyrhizi, the pest or weed control at 500 ppm is not below 70%.

For `CCN(C)C=Nc1cc(C)c(S(=O)(=O)c2ccccc2Cl)cc1C` [Example I-020, N'-[4-(2-chlorophenyl)sulfonyl-2,5-dimethylphenyl]-N-ethyl-N-methylmethanimidamide], in data set [1] (setting [2]), the chromatographic logP stood at 1.18. Further, the pest or weed control at 500 ppm in the data set with Phakospora pachyrhizi is not below 70%.

In turn, `CCN(C)C=Nc1cc(F)c(Sc2ccccc2)cc1C` [Example I-021, N-ethyl-N'-(5-fluoro-2-methyl-4-phenylsulfanylphenyl)-N-methylmethanimidamide] yielded a chromatographic logP in data set [1] (setting [2]) of 1.53. The pest or weed control at 500 ppm in the data set with Phakospora pachyrhizi is not below 70%.

With `CCN(C)C=Nc1cc(F)c(Sc2ccccc2C)cc1C` [Example I-022, N-ethyl-N'-[5-fluoro-2-methyl-4-[(2-methylphenyl)thio]phenyl]-N-methylmethanimidamide], the chromatographic logP in data set [1] (setting [2]) worked out at 1.66. Further, in the data set on Phakospora pachyrhizi, the pest or weed control at 500 ppm is not below 70%.

In the case of `CCN(C)C=Nc1cc(C)c([S+]([O-])c2ccccc2C)cc1Br` (stereo not drawn) [Example I-063, N'-[2-bromo-5-methyl-4-(2-methylphenyl)sulfinylphenyl]-N-ethyl-N-methylmethanimidamide], in data set [1] (setting [2]), the chromatographic logP was 1.15.

Regarding `CCN(C)C=Nc1cc(Br)c([S+]([O-])c2ccccc2C#N)cc1C` (stereo not drawn) [Example I-064, N'-[5-bromo-4-(2-cyanophenyl)sulfinyl-2-methylphenyl]-N-ethyl-N-methylmethanimidamide], the chromatographic logP in data set [1] (setting [2]) was 0.93.

`CCN(C)C=Nc1cc(C)c(S(=O)(=O)c2ccccc2C)cc1Br` [Example I-065, N'-[2-bromo-5-methyl-4-(2-methylphenyl)sulfonylphenyl]-N-ethyl-N-methylmethanimidamide] registered a chromatographic logP in data set [1] (setting [2]) of 1.93.

The molecule `CCN(C)C=Nc1cc(Br)c(S(=O)(=O)c2ccccc2C#N)cc1C` [Example I-070, N'-[5-bromo-4-(2-cyanophenyl)sulfonyl-2-methylphenyl]-N-ethyl-N-methylmethanimidamide] came in with a chromatographic logP in data set [1] (setting [2]) of 1.34.

Regarding `CCN(C)C=Nc1cc(C)c(S(=O)(=O)c2ccccc2F)cc1Br` [Example I-071, N'-[2-bromo-4-(2-fluorophenyl)sulfonyl-5-methylphenyl]-N-ethyl-N-methylmethanimidamide], the chromatographic logP in data set [1] (setting [2]) was 1.81.

In turn, `CCN(C)C=Nc1cc(C)c(S(=O)(=O)c2ccccc2C)cc1C1CC1` [Example I-072, N'-[2-cyclopropyl-5-methyl-4-(2-methylphenyl)sulfonylphenyl]-N-ethyl-N-methylmethanimidamide] gave a chromatographic logP in data set [1] (setting [2]) of 1.39.

On to `CCN(C)C=Nc1cc(C)c([S+]([O-])c2ccccc2C)cc1C(C)C` (stereo not drawn) [Example I-073, N-ethyl-N'-[2-isopropyl-5-methyl-4-(2-methylphenyl)sulfinylphenyl]-N-methylmethanimidamide], for which the chromatographic logP in data set [1] (setting [2]) is 1.18.

In the case of `CCN(C)C=Nc1cc(C)c([S+]([O-])c2ccccc2C)cc1C1CC1` (stereo not drawn) [Example I-074, N'-[2-cyclopropyl-5-methyl-4-(2-methylphenyl)sulfinylphenyl]-N-ethyl-N-methylmethanimidamide], the chromatographic logP in data set [1] (setting [2]) stood at 1.07.

`CCN(C)C=Nc1cc(C)c([S+]([O-])c2ccccc2)cc1C1CC1` (stereo not drawn) [Example I-075, N'-[4-(benzenesulfinyl)-2-cyclopropyl-5-methylphenyl]-N-ethyl-N-methylmethanimidamide] yielded a chromatographic logP in data set [1] (setting [2]) of 0.9.

For `CCc1cc([S+]([O-])c2ccccc2F)c(C)cc1N=CN(C)CC` (stereo not drawn) [Example I-076, N-ethyl-N'-[2-ethyl-4-(2-fluorophenyl)sulfinyl-5-methylphenyl]-N-methylmethanimidamide], in data set [1] (setting [2]), the chromatographic logP stood at 1.

As for `CCN(C)C=Nc1cc(C)c([S+]([O-])c2ccccc2)cc1Br` (stereo not drawn) [Example I-079, N'-[4-(benzenesulfinyl)-2-bromo-5-methylphenyl]-N-ethyl-N-methylmethanimidamide], the chromatographic logP in data set [1] (setting [2]) stood at 0.93.

In data set [1] (setting [2]), `CCN(C)C=Nc1cc(C)c(Sc2ccccc2)cc1Br` [Example I-080, N'-(2-bromo-5-methyl-4-phenylsulfanylphenyl)-N-ethyl-N-methylmethanimidamide] gave a chromatographic logP of 1.75.

With `CCc1cc([S+]([O-])c2ccccc2C)c(C)cc1N=CN(C)CC` (stereo not drawn) [Example I-081, N-ethyl-N'-[2-ethyl-5-methyl-4-(2-methylphenyl)sulfinylphenyl]-N-methylmethanimidamide], the chromatographic logP in data set [1] (setting [2]) came out at 1.07.

Take `CCN(C)C=Nc1cc(C)c(Sc2ccccc2C)cc1C(F)(F)F` [Example I-083, N-ethyl-N-methyl-N'-[5-methyl-4-[(2-methylphenyl)thio]-2-(trifluoromethyl)phenyl]methanimidamide]: in data set [1] (setting [2]), the chromatographic logP was determined as 2.62.

In data set [1] (setting [2]), `CCc1cc(S(=O)(=O)c2ccccc2F)c(C)cc1N=CN(C)CC` [Example I-084, N-ethyl-N'-[2-ethyl-4-(2-fluorophenyl)sulfonyl-5-methylphenyl]-N-methylmethanimidamide] displayed a chromatographic logP of 1.24.

Regarding `CCN(C)C=Nc1cc(C)c([S+]([O-])c2ccccc2F)cc1C(C)C` (stereo not drawn) [Example I-086, N-ethyl-N'-[4-(2-fluorophenyl)sulfinyl-2-isopropyl-5-methylphenyl]-N-methylmethanimidamide], the chromatographic logP in data set [1] (setting [2]) was found to be 1.15.

Consider `CCN(C)C=Nc1cc(C)c([S+]([O-])c2ccccc2C)cc1C(F)(F)F` (stereo not drawn) [Example I-088, N-ethyl-N-methyl-N'-[5-methyl-4-(2-methylphenyl)sulfinyl-2-(trifluoromethyl)phenyl]methanimidamide], for which, in data set [1] (setting [2]), the chromatographic logP came to 2.14.

Consider `CCN(C)C=Nc1cc(C)c([S+]([O-])c2ccccc2F)cc1C1CC1` (stereo not drawn) [Example I-089, N'-[2-cyclopropyl-4-(2-fluorophenyl)sulfinyl-5-methylphenyl]-N-ethyl-N-methylmethanimidamide], for which, in data set [1] (setting [2]), the chromatographic logP was 1.04.

For `CCN(C)C=Nc1cc(C)c(S(=O)(=O)c2ccccc2C)cc1C(F)(F)F` [Example I-092, N-ethyl-N-methyl-N'-[5-methyl-4-(2-methylphenyl)sulfonyl-2-(trifluoromethyl)phenyl]methanimidamide], the chromatographic logP in data set [1] (setting [2]) is 3.76.

As to `CCN(C)C=Nc1cc(C)c(S(=O)(=O)c2ccccc2F)cc1C(C)C` [Example I-093, N-ethyl-N'-[4-(2-fluorophenyl)sulfonyl-2-isopropyl-5-methylphenyl]-N-methylmethanimidamide], in data set [1] (setting [2]), the chromatographic logP amounted to 1.45.

`CCN(C)C=Nc1cc(C)c(S(=O)(=O)c2ccccc2C)cc1C(C)C` [Example I-094, N-ethyl-N'-[2-isopropyl-5-methyl-4-(2-methylphenyl)sulfonylphenyl]-N-methylmethanimidamide]: the chromatographic logP in data set [1] (setting [2]) was found to be 1.58.

In turn, `CCN(C)C=Nc1cc(C)c(S(=O)(=O)c2ccccc2)cc1C1CC1` [Example I-095, N'-[4-(benzenesulfonyl)-2-cyclopropyl-5-methylphenyl]-N-ethyl-N-methylmethanimidamide] registered a chromatographic logP in data set [1] (setting [2]) of 1.24.

The molecule `CCN(C)C=Nc1cc(C)c(S(=O)(=O)c2ccccc2F)cc1C1CC1` [Example I-096, N'-[2-cyclopropyl-4-(2-fluorophenyl)sulfonyl-5-methylphenyl]-N-ethyl-N-methylmethanimidamide] showed a chromatographic logP in data set [1] (setting [2]) of 1.27.

On to `CCN(C)C=Nc1cc(C)c(Sc2ccccc2C#N)cc1C(F)(F)F` [Example I-104, N'-[4-[(2-cyanophenyl)thio]-5-methyl-2-(trifluoromethyl)phenyl]-N-ethyl-N-methylmethanimidamide], for which the chromatographic logP in data set [1] (setting [2]) is 2.44; in data set [1] (method [b]: LC-UV, neutral range, 0.001 molar ammonium acetate solution in water and acetonitrile as eluent (linear gradient 10% to 95% acetonitrile)), 4.64.
